{"source": "ChEMBL document CHEMBL6074620", "about": "“Discovery of a triphenylamine-based ligand that targets mitochondrial DNA G-quadruplexes and activates the cGAS-STING immunomodulatory pathway” (Eur J Med Chem, 2024)", "key": {"[1]": {"target": "Quadruplex DNA", "test": "Binding affinity to 3-terminal mt6363 DNA (unknown origin) assessed as dissociation constant by TAMRA-labeled G4 quenching assay", "assay_type": "nucleic-acid assay"}, "[2]": {"target": "Quadruplex DNA", "test": "Binding affinity to 5-terminal mt6363 DNA (unknown origin) assessed as dissociation constant by TAMRA-labeled G4 quenching assay", "assay_type": "nucleic-acid assay"}, "[3]": {"test_system": "MDA-MB-231", "test": "Cytotoxicity against human MDA-MB-231 cells assessed as reduction in cell viability incubated for 24 hrs by CCK-8 assay", "assay_type": "functional, cell-based", "conditions": "MDA-MB-231, 24 h"}, "[4]": {"test": "Cytotoxicity against human MCF-10A assessed as cell growth inhibition incubated for 24 hrs by CCK-8 assay", "assay_type": "toxicity, cell-based", "conditions": "MCF-10A cells"}, "[5]": {"test": "Drug localization in mitochondria of mouse 4T1 cells assessed as signal colocalization incubated for 30 mins by MitoTracker Green staining based analysis", "assay_type": "ADME", "conditions": "4t1, 0.5 h"}, "[6]": {"test_system": "4T1", "test": "Inhibition of colony formation in mouse 4T1 cells assessed as decrease in number of colonies measured after 10 days of treatment by […]", "assay_type": "functional, cell-based", "conditions": "dose <= 2.0 µM, time 10.0 day"}, "[7]": {"test_system": "4T1", "test": "Inhibition of tumor metastasis in mouse 4T1 cells assessed as reduction in wound healing after 24 hrs", "assay_type": "functional, cell-based"}, "[8]": {"test_system": "Mitochondrial membrane", "test": "Disruption of mitochondrial membrane potential in mouse 4T1 cells assessed as increase green fluorescence at 0 to 5 uM by JC-1 staining based analysis", "conditions": "dose 0-5 µM"}, "[9]": {"test_system": "4T1", "test": "Induction of mitochondrial damage in mouse 4T1 cells assessed as increase in Dloop2 level by qPCR analysis", "assay_type": "functional, cell-based"}, "[10]": {"test_system": "4T1", "test": "Induction of ROS generation in mouse 4T1 cells assessed as increase ROS level by DCFH-DA staining based analysis", "assay_type": "functional, cell-based"}, "[11]": {"test_system": "4T1", "test": "Induction of mitochondrial damage in mouse 4T1 cells assessed as increase in CytB level by qPCR analysis", "assay_type": "functional, cell-based"}, "[12]": {"test_system": "4T1", "test": "Induction of mitochondrial damage in mouse 4T1 cells assessed as dispersion of fluorescence Mitotracker red incubated for 1 hrs and measured after 24 hrs by immunofluorescence analysis", "assay_type": "functional, cell-based", "conditions": "time 25.0 hrs"}, "[13]": {"test_system": "4T1", "test": "Activation of cGAS-STING pathway in mouse 4T1 cells assessed as […] in STING phosphorylation up to 5 uM by Western blot analysis", "assay_type": "cell-based", "conditions": "filed as activator"}, "[14]": {"test_system": "4T1", "test": "Activation of cGAS-STING signaling pathway in mouse 4T1 cells assessed as increase in IFN-beta level at 5 uM by qPCR analysis", "assay_type": "cell-based", "conditions": "filed as activator"}, "[15]": {"test_system": "4T1", "test": "Activation of cGAS-STING signaling pathway in mouse 4T1 cells assessed as increase in ISG54 level at 5 uM by qPCR analysis", "assay_type": "cell-based", "conditions": "filed as activator"}, "[16]": {"test_system": "4T1", "test": "Activation of cGAS-STING signaling pathway in mouse 4T1 cells assessed as increase in IL-6 level at 5 uM by qPCR analysis", "assay_type": "cell-based", "conditions": "filed as activator"}, "[17]": {"test_system": "4T1", "test": "Induction of mitochondrial damage in mouse 4T1 cells assessed as decrease in ND4 level at 5 uM in presence of DDC by qPCR analysis", "assay_type": "functional, cell-based"}, "[18]": {"test": "Toxicity in female BALB/c mouse implanted with mouse 4T1 cells assessed as body weight loss at 2.5 mg/kg, sc measured every other day for 21 days", "assay_type": "organism-based", "conditions": "in vivo, 504 h, time 21 day"}, "[19]": {"test": "Toxicity in female BALB/c mouse implanted with mouse 4T1 cells assessed as change in lungs weight at 2.5 mg/kg, sc measured after 21 days by Hematoxylin-Eosin staining based analysis", "assay_type": "organism-based", "conditions": "in vivo, 504 h, time 21 day"}, "[20]": {"test": "Toxicity in female BALB/c mouse implanted with mouse 4T1 cells assessed as change in kidney weight at 2.5 mg/kg, sc measured after 21 days by Hematoxylin-Eosin staining based analysis", "assay_type": "organism-based", "conditions": "in vivo, 504 h, time 21 day"}, "[21]": {"test_system": "Mus musculus", "test": "Immunostimulatory activity in female BALB/c mouse implanted with mouse 4T1 cells assessed as upregulation of M1 macrophages level 2.5 mg/kg, sc by flow cytometry analysis", "assay_type": "functional, organism-based"}, "[22]": {"test_system": "Mus musculus", "test": "Immunostimulatory activity in female BALB/c mouse implanted with mouse 4T1 cells assessed as increase in number of activated CD8+ T cells in spleen 2.5 mg/kg, sc by flow cytometry", "assay_type": "functional, organism-based"}, "[23]": {"test_system": "4T1", "test": "Antitumor activity against mouse 4T1 cells implanted with female BALB/c mouse assessed as suppression in lung metastasis at 2.5 mg/kg, iv administered every 3 days for 2 weeks from day 7", "assay_type": "functional, organism-based"}, "[24]": {"test_system": "4T1", "test": "Induction of apoptosis in mouse 4T1 cells at 5 uM by Annexin V/PI staining based flow cytometry analysis", "assay_type": "functional, cell-based"}, "[25]": {"test_system": "4T1", "test": "Activation of cGAS-STING signaling pathway in mouse 4T1 cells assessed as increase in TNF-alpha level up to 5 uM by ELISA analysis", "assay_type": "cell-based", "conditions": "filed as activator"}, "[26]": {"test_system": "Mus musculus", "test": "Immunostimulatory activity in female BALB/c mouse implanted with mouse 4T1 cells assessed as change in CD4+ T cells in spleen 2.5 mg/kg, sc by flow cytometry", "assay_type": "functional, organism-based"}, "[27]": {"test_system": "Mus musculus", "test": "In-vivo activation of cGAS-STING signaling pathway in female BALB/c mouse assessed as IRF3 level in tumor at 2.5 mg/kg, sc by Western blot analysis", "assay_type": "functional, organism-based"}, "[28]": {"test_system": "4T1", "test": "Antitumor activity against mouse 4T1 cells implanted with female BALB/c mouse assessed as effect on caspase-3 level in tumor at 2.5 mg/kg, sc measured for 21 days", "assay_type": "functional, organism-based", "conditions": "time 21.0 day"}, "[29]": {"test_system": "4T1", "test": "Antitumor activity against mouse 4T1 cells implanted with female BALB/c mouse assessed as effect on PARP level in tumor at 2.5 mg/kg, sc measured for 21 days", "assay_type": "functional, organism-based", "conditions": "time 21.0 day"}, "[30]": {"test_system": "Mus musculus", "test": "In-vivo activation of cGAS-STING signaling pathway in female BALB/c mouse assessed as increase in IFN-beta level at 2.5 mg/kg, sc by ELISA analysis", "assay_type": "functional, organism-based"}, "[31]": {"test_system": "Mus musculus", "test": "In-vivo activation of cGAS-STING signaling pathway in female BALB/c mouse assessed as increase in TNF-alpha level at 2.5 mg/kg, sc by ELISA analysis", "assay_type": "functional, organism-based"}, "[32]": {"test_system": "Mus musculus", "test": "Immunostimulatory activity in female BALB/c mouse implanted with mouse 4T1 cells assessed as increase in CD8+ T cells in spleen 2.5 mg/kg, iv by flow cytometry", "assay_type": "functional, organism-based"}}, "note": "pIC50, pKd: −log10 of the molar value. Activity calls are given as the source filed them. The calls are words filed in the database; no cut-off is given here."}
{"smiles": "COc1ccc(N(c2ccc(/C=C/C3=[N+](C)c4ccc5ccccc5c4C3(C)C)cc2)c2ccc(OC)cc2)cc1.[I-]", "values": [{"measurement": "pKd", "setting": "[1]", "value": 5.72}, {"measurement": "pKd", "setting": "[2]", "value": 5.62}, {"measurement": "pIC50", "setting": "[3]", "value": 5.74}, {"measurement": "IC50 at 24 h", "setting": "[4]", "value": 9.6, "unit": "µM"}, {"measurement": "Drug uptake", "setting": "[5]", "value": "Active"}, {"measurement": "Activity", "setting": "[6]", "value": "Dose-dependent-effect"}, {"measurement": "Activity", "setting": "[7]", "value": "Active"}, {"measurement": "Activity", "setting": "[8]", "value": "Active"}, {"measurement": "Activity", "setting": "[9]", "value": "Active"}, {"measurement": "Activity", "setting": "[10]", "value": "Active"}, {"measurement": "Activity", "setting": "[11]", "value": "Active"}, {"measurement": "Activity", "setting": "[12]", "value": "Active"}, {"measurement": "Activity", "setting": "[13]", "value": "Active"}, {"measurement": "Activity", "setting": "[14]", "value": "Active"}, {"measurement": "Activity", "setting": "[15]", "value": "Active"}, {"measurement": "Activity", "setting": "[16]", "value": "Active"}, {"measurement": "Activity", "setting": "[17]", "value": "Active"}, {"measurement": "Activity", "setting": "[18]", "value": "Non-toxic"}, {"measurement": "Activity", "setting": "[19]", "value": "Non-toxic"}, {"measurement": "Activity", "setting": "[20]", "value": "Non-toxic"}, {"measurement": "Activity", "setting": "[21]", "value": "Active"}, {"measurement": "Activity", "setting": "[22]", "value": "Active"}, {"measurement": "Activity", "setting": "[23]", "value": "Active"}, {"measurement": "Activity", "setting": "[24]", "value": "Active"}, {"measurement": "Activity", "setting": "[25]", "value": "Active"}, {"measurement": "Activity", "setting": "[26]", "value": "Active"}, {"measurement": "Activity", "setting": "[27]", "value": "Active"}, {"measurement": "Activity", "setting": "[28]", "value": "Active"}, {"measurement": "Activity", "setting": "[29]", "value": "Active"}, {"measurement": "Activity", "setting": "[30]", "value": "Active"}, {"measurement": "Activity", "setting": "[31]", "value": "Active"}, {"measurement": "Activity", "setting": "[32]", "value": "Active"}]}
